In patent publication US20100298384A1, “NOVEL OXAZOLIDINONE COMPOUNDS AS ANTIINFECTIVE AGENTS” (priority 2006, published 2010):

Experiments:
[1] = tested on: S. aureus ATCC 29213 and other strains; test: Systemic infection model in mice, ED50 by Probit analysis; assay type: in vivo; conditions: Staphylococcus aureus, ATCC29213, Swiss albino mice, survival observed 5 to 7 days, route and regimen not stated per value
Procedure: Efficacies of the molecules were determined by systemic infection model. In this model, 6-7 weeks old Swiss albino mice (3 Males and 3 Females/group) weighing 21-25 grams were used. S. aureus ATCC 29213 and other strains were cultured on Columbia Blood agar (DIFCO), overnight, at 37° C. for 18 to 24 hours. Inoculum was prepared in 0.9% saline and optical density (OD) was adjusted at 560 nm to get 100×LD50 dose. Inoculum was diluted 1:1 with 10% Hog Gastric Mucin and 0.5 ml of inoculum was injected intraperitonially to each animal. Test compounds were solubilised in suitable formulation and administered by per-oral, subcutaneous or intra venous route by q.d., b.i.d. or t.i.d. protocol. […] ED50 Value (mg/kg) was calculated by Probit analysis.

melting point | Compound | ED50 [1]
204 to 206 °C | CC(=O)NC[C@H]1CN(c2ccc(-c3nc(Cn4cccn4)co3)c(F)c2)C(=O)O1 [Example 2, N-{3-[3-fluoro-4-(4-pyrazol-1-ylmethyl-oxazol-2-yl)-phenyl]-2-oxo-oxazolidin-5(S)-ylmethyl}-acetamide] | 7.1 mg/kg
160 to 162 °C | CC(=O)NC[C@H]1CN(c2ccc(-c3nc(Cn4cncn4)co3)c(F)c2)C(=O)O1 [Example 4, N-{3-[3-fluoro-4-(4-[1,2,4]-triazol-1-ylmethyl-oxazol-2-yl)-phenyl]-2-oxo-oxazolidin-5(S)-ylmethyl}-acetamide] | 5.38 mg/kg
170 to 171 °C | CC(=O)NC[C@H]1CN(c2ccc(-n3cc(Cn4cncn4)nn3)c(F)c2)C(=O)O1 [Example 30] | 8.5 mg/kg
 | COC(=O)NC[C@H]1CN(c2ccc(-n3cc(Cn4cccn4)nn3)c(F)c2)C(=O)O1 [Example 46, Methyl N-{3-[3-fluoro-4-(4-pyrazol-1-yl-methyl-(1,2,3)triazol-1-yl)-phenyl]-2-oxo-oxazolidin-5-ylmethyl}carbamate] | 2.53 mg/kg

Compound | melting point | ED50 [1]
COC(=O)NC[C@H]1CN(c2ccc(-n3cnc(Cn4cccn4)c3)c(F)c2)C(=O)O1 [Example 44, Methyl {3-[3-fluoro-4-(4-pyrazol-1-ylmethyl-imidazol-1-yl)-phenyl]-2-oxo-oxazolidin-5-ylmethyl}-carbamate] | 130 °C | 5.02 mg/kg
